In BigSolDB 2.1:

O=C1OC(=O)[C@H]2[C@@H]1[C@H]1C=C[C@@H]2C1
solubility (mole fraction)
Conditions | 278.15 K | 283.15 K | 288.15 K | 293.15 K | 298.15 K | 303.15 K | 308.15 K | 313.15 K | 318.15 K | 323.15 K
in 1,4-dioxane | – | – | 0.177 | 0.199 | 0.221 | 0.249 | 0.273 | 0.304 | 0.334 | 0.37
in DMF | 0.209 | 0.23 | 0.246 | 0.267 | 0.288 | 0.309 | 0.337 | 0.361 | 0.389 | 0.419
in NMP | 0.257 | 0.271 | 0.289 | 0.305 | 0.325 | 0.345 | 0.371 | 0.392 | 0.421 | 0.448
in acetone | 0.13 | 0.144 | 0.162 | 0.179 | 0.201 | 0.223 | 0.251 | 0.276 | 0.308 | –
in ethanol | 0.00405 | 0.00536 | 0.00707 | 0.00927 | 0.0117 | 0.0155 | 0.02 | 0.0255 | 0.0321 | 0.0404
in ethyl acetate | 0.0719 | 0.0849 | 0.101 | 0.115 | 0.134 | 0.154 | 0.176 | 0.201 | 0.226 | 0.254
in isopentyl acetate | 0.0426 | 0.0504 | 0.0608 | 0.07 | 0.0818 | 0.0952 | 0.107 | 0.125 | 0.145 | 0.165
in isopropyl acetate | 0.0541 | 0.0637 | 0.0745 | 0.0862 | 0.102 | 0.117 | 0.133 | 0.152 | 0.172 | 0.196
in methyl acetate | 0.0936 | 0.11 | 0.127 | 0.145 | 0.166 | 0.189 | 0.214 | 0.24 | 0.269 | 0.298
in n-butyl acetate | 0.0526 | 0.0614 | 0.0725 | 0.0835 | 0.0969 | 0.111 | 0.128 | 0.145 | 0.165 | 0.189
in n-hexyl acetate | 0.0377 | 0.0447 | 0.0525 | 0.0614 | 0.0717 | 0.0828 | 0.0955 | 0.11 | 0.125 | 0.144
in n-pentyl acetate | 0.0448 | 0.0526 | 0.0615 | 0.0717 | 0.0833 | 0.0964 | 0.111 | 0.126 | 0.144 | 0.165
in n-propyl acetate | 0.0616 | 0.0722 | 0.0852 | 0.0981 | 0.112 | 0.13 | 0.148 | 0.17 | 0.191 | 0.215
in octyl acetate | 0.0303 | 0.036 | 0.0424 | 0.0496 | 0.0576 | 0.0666 | 0.0774 | 0.0875 | 0.1 | 0.115
